From the NIST ThermoML archive (doi:10.1016/j.jct.2018.04.005)

Tests used:
[1] = 100 kPa, Liquid, Vibrating tube method
[2] = xn = mol fraction of the nth substance listed; details: 100 kPa, Liquid, Vibrating tube method

CCCC[n+]1ccn(C)c1.O=S(=O)([N-]S(=O)(=O)C(F)(F)F)C(F)(F)F
[1]
Details	mass density [kg/m3]
293.15 K	1442.3
298.15 K	1435.96
303.15 K	1431.96
308.15 K	1427.23
313.15 K	1422.19
318.15 K	1417.89
323.15 K	1412.96

CCCCn1cc[n+](C)c1.F[P-](F)(F)(F)(F)F [1-butyl-3-methylimidazolium hexafluorophosphate]
[1]
Details	mass density [kg/m3]
293.15 K	1370.73
298.15 K	1366.5
303.15 K	1361.63
308.15 K	1359.45
313.15 K	1355.23
318.15 K	1351.63
323.15 K	1347.23

CCCCn1cc[n+](C)c1.F[P-](F)(F)(F)(F)F [1-butyl-3-methylimidazolium hexafluorophosphate] + COC(=O)OC
mass density [kg/m3], [2]
Details	x1 = 0.034	x1 = 0.0734	x1 = 0.1196	x1 = 0.1744	x1 = 0.2407	x1 = 0.3222	x1 = 0.4251	x1 = 0.559	x1 = 0.7404	x1 = 1
293.15 K	1099.2	1128.63	1159.82	1189.04	1220.08	1249.42	1278.97	1308.93	1339.9	1370.73
298.15 K	1092.76	1122.91	1154.74	1183.63	1214.03	1244.28	1274.43	1303.88	1335.38	1366.5
303.15 K	1086.29	1116.15	1148.32	1177.52	1208.51	1238.99	1269.31	1298.92	1330.3	1361.63
308.15 K	1080.03	1110.74	1142.49	1173.19	1203.38	1234.34	1265.31	1295.41	1327.51	1359.45
313.15 K	1073.79	1104.95	1136.01	1167.14	1197.82	1229.08	1260.15	1290.91	1322.98	1355.23
318.15 K	1067.23	1098.5	1130.22	1161.77	1192.91	1224.39	1255.4	1286.76	1318.91	1351.63
323.15 K	1060.39	1092.27	1125.56	1156.96	1187.95	1219.55	1250.82	1282.14	1314.13	1347.23

CCCCn1cc[n+](C)c1.F[B-](F)(F)F [1-butyl-3-methylimidazolium tetrafluoroborate]
[1]
Details	mass density [kg/m3]
293.15 K	1202.47
298.15 K	1200.1
303.15 K	1195.48
308.15 K	1191.65
313.15 K	1187.83
318.15 K	1184.13
323.15 K	1180.33

COC(=O)OC [dimethyl carbonate]
[1]
Details	mass density [kg/m3]
293.15 K	1069.83
298.15 K	1063.25
303.15 K	1056.63
308.15 K	1050.08
313.15 K	1043.44
318.15 K	1036.62
323.15 K	1029.88

COC(=O)OC [dimethyl carbonate] + CCCCn1cc[n+](C)c1.F[P-](F)(F)(F)(F)F
[2], x2 = 0
Details	mass density [kg/m3]
293.15 K	1069.83
298.15 K	1063.25
303.15 K	1056.63
308.15 K	1050.08
313.15 K	1043.44
318.15 K	1036.62
323.15 K	1029.88
